Experimental data taken from patent US3945993A, “Derivatives of polyene macrolide antibiotics” (Rutgers Research and Educational Foundation, priority 1971, dated 1976).
Converted amounts (≈) assume the structure as drawn. Counter-ions that a name gives are not always drawn. Like-named read-outs stand apart in the source and are kept apart here.

What was measured:
[1] = test system: Saccharomyces cerevisiae; assay: Minimum inhibitory concentration, in vitro antifungal potency (Saccharomyces cerevisiae); format: cell-based; conditions: for MIC: read-out: Min. Inhibitory Conc.
Text: (§1) As indicated, numerous tests have shown that the antimicrobial activity of the present derivatives, both in the immediate ester form of esterification and in the final water-soluble salt form, is substantially the same as that of the base antibiotics. […] In the table the numerical values represent minimum inhibitory concentration and thus the lower the value, the greater the activity in inhibiting growth of the organism.

[2] = True water solubility of base polyene antibiotics by DMSO dilution and ultra-violet spectrum; format: physicochemical; conditions: for solubility: water
[3] = True solution in water judged by ultra-violet spectrum (FIG. 5); format: physicochemical; conditions: 7 micrograms per ml. in water
Text: The true solubility of the present derivatives is further illustrated by FIG. 5, where curve A is the ultraviolet spectrum for amphotericin B methyl ester hydrochloride in water, 7 micrograms per ml., and curve B is a like spectrum for the same concentration of the base amphotericin B in water.

[4] = test system: Candida albicans; assay: Minimum inhibitory concentration (Candida albicans); format: cell-based
Text: as §1
(§2) In the case of amphotericin B this set of tests was extended to other microorganisms: the minimum inhibitory concentrations in micrograms per ml. for amphotericin B and its methyl ester hydrochloride respectively were 0.5 and 0.5 against Candida albicans, 0.5 and 0.5 against Mucor rouxii, and 0.20 and 0.25 against Aspergillus niger.

[5] = test system: Saccharomyces cerevisiae, Candida albicans and Aspergillus niger; assay: Standard in vitro tests of antimicrobial activity of derivative and base against representative organisms; format: cell-based; conditions: result in words
Text: as §1

[6] = Water solubility of acid salts of the esters by the dry weight method; format: physicochemical; conditions: acid addition salts (hydrochlorides); for solubility: water
[7] = test system: Mucor rouxii; assay: Minimum inhibitory concentration (Mucor rouxii); format: cell-based; conditions: Amylomyces rouxii
Text: as §1, §2

[8] = test system: Aspergillus niger; assay: Minimum inhibitory concentration (Aspergillus niger); format: cell-based
Text: as §1, §2

[9] = Qualitative solubility of esters and salts in water and organic solvents; format: physicochemical
[10] = base antibiotics, calculated from UV after ten fold dilution of saturated water solution with dimethyl sulfoxide

In the case of `C[C@@H]1[C@H](O)[C@@H](C)/C=C/C=C/CC/C=C/C=C/C=C/C=C/C(O[C@H]2O[C@H](C)[C@@H](O)[C@H](N)[C@@H]2O)CC2O[C@](O)(CC(O)C(O)CCC(O)CC(O)CC(O)CC(=O)O[C@H]1C)CC(O)C2C(=O)O` (some centres unmarked) [Nystatin, reference compound], the “Min. Inhibitory Conc.” value ([1]; in vitro) is reported as 3.00 micrograms/ml and the Solubility in water [2, 10] is reported as 0.039 mg/mL (≈ 42.1 µM).
For `COC(=O)[C@H]1[C@@H]2C[C@@H](O[C@@H]3O[C@H](C)[C@@H](O)[C@H](N)[C@@H]3O)/C=C/C=C/C=C/C=C/C=C/C=C/C=C/[C@H](C)[C@@H](O)[C@@H](C)[C@H](C)OC(=O)C[C@H](O)C[C@H](O)CC[C@@H](O)[C@H](O)C[C@H](O)C[C@](O)(C[C@@H]1O)O2` [amphotericin B methyl ester hydrochloride], the “state in water by ultraviolet spectrum” value [3] was “true solution in water”, the MIC [4] was 0.5 µg/mL and the MIC [1] was 0.25 µg/mL. The “antimicrobial activity compared with the base antibiotic” value [5] was “very substantial antimicrobial activity, essentially the same, i.e., quantitatively, as the base antibiotic”, the Solubility in water ([6]; hydrochloride) was greater than 75 mg/mL and the solubility [6] was greater than 75 mg/mL. The MIC [7] was 0.5 µg/mL and the MIC [8] was 0.25 µg/mL.
In the case of `C[C@@H]1C/C=C/C=C/C=C/C=C/[C@H](O[C@@H]2O[C@H](C)[C@@H](O)[C@H](N)[C@@H]2O)C[C@@H]2O[C@](O)(C[C@@H](O)C[C@H]3O[C@@H]3/C=C/C(=O)O1)C[C@H](O)[C@H]2C(=O)O` [Pimaricin, reference compound], the MIC ([1]; in vitro) is reported as 3.5 µg/mL (≈ 5.26 µM) and the solubility [2] is reported as 0.052 mg/mL (≈ 78.1 µM).
For Trichomycin [reference compound], the “Min. Inhibitory Conc.” value ([1]; in vitro) was 0.030 micrograms/ml and the Solubility in water [2, 10] was 0.046 mg/mL.
For Candimycin [reference compound], the “Min. Inhibitory Conc.” value ([1]; in vitro) was 0.025 micrograms/ml.
Work on Candidin methyl ester hydrochloride yielded a Solubility in water [6] greater than 50.0 mg/mL.
With Mediocidin methyl ester the “Min. Inhibitory Conc.” value ([1]; in vitro) was 0.030 micrograms/ml.
For Candicidin methyl ester hydrochloride, the “Min. Inhibitory Conc.” value ([1]; in vitro) was 0.025 micrograms/ml and the Solubility in water [6] was greater than 20.0 mg/mL.
For `COC(=O)[C@H]1[C@@H]2C[C@@H](O[C@@H]3O[C@H](C)[C@@H](O)[C@H](N)[C@@H]3O)/C=C/C=C/C=C/C=C/C=C/C=C/C=C/[C@H](C)[C@@H](O)[C@@H](C)[C@H](C)OC(=O)C[C@H](O)C[C@H](O)CC[C@@H](O)[C@H](O)C[C@H](O)C[C@](O)(C[C@@H]1O)O2` [Amphotericin B methyl ester, amphotericin B methyl ester], the “solubility in ethyl acetate” value ([9]; ethyl acetate) was “slightly soluble”, the “solubility in organic solvents” value ([9]; methyl alcohol, ethyl alcohol, tetrahydrofurane, dimethyl formamide and dimethyl sulfoxide) was “soluble” and the “solubility in petroleum ether and ethyl ether” value ([9]; petroleum ether and ethyl ether) was “insoluble”. The “solubility in water (in words)” value ([9]; water) was “slightly soluble”.
Work on Candidin yielded a Solubility in water [2, 10] of 0.116 mg/mL.
In the case of `C[C@@H]1[C@H](O)[C@@H](C)/C=C/C=C/C=C/C=C/C=C/C=C/C=C/[C@H](O[C@@H]2O[C@H](C)[C@@H](O)[C@H](N)[C@@H]2O)C[C@@H]2O[C@](O)(C[C@@H](O)C[C@@H](O)[C@H](O)CC[C@@H](O)C[C@@H](O)CC(=O)O[C@H]1C)C[C@H](O)[C@H]2C(=O)O` [Amphotericin B, amphotericin B, reference compound], the “state in water by ultraviolet spectrum” value [3] is reported as “did not dissolve and was therefore a mere dispersion”, the MIC [1] is reported as 0.25 µg/mL (≈ 0.271 µM) and the solubility ([2]; base antibiotics, calculated from UV after ten fold dilution of saturated water solution with dimethyl sulfoxide, read-out: Solubility in water) is reported as 0.0017 mg/mL (≈ 1.84 µM). For the same compound, the MIC [7] was 0.5 µg/mL (≈ 0.541 µM) and the MIC [8] was 0.2 µg/mL (≈ 0.216 µM).
In the case of Hamycin, the Solubility in water [2, 10] is reported as 0.032 mg/mL.
With Nystatin methyl ester the “Min. Inhibitory Conc.” value ([1]; in vitro) was 4.00 micrograms/ml.
In the case of Hamycin methyl ester hydrochloride, the Solubility in water [6] is reported as greater than 20.0 mg/mL.
For Trichomycin methyl ester hydrochloride, the “Min. Inhibitory Conc.” value ([1]; in vitro) was 0.030 micrograms/ml and the Solubility in water [6] was greater than 20.0 mg/mL.
In the case of Mediocidin [reference compound], the “Min. Inhibitory Conc.” value ([1]; in vitro) is reported as 0.035 micrograms/ml and the Solubility in water [2, 10] is reported as 0.072 mg/mL.
For Nystatin methyl ester hydrochloride, the Solubility in water [6] was greater than 80.0 mg/mL.
For `CCOC(=O)[C@H]1[C@@H]2C[C@@H](O[C@@H]3O[C@H](C)[C@@H](O)[C@H](N)[C@@H]3O)/C=C/C=C/C=C/C=C/C=C/C=C/C=C/[C@H](C)[C@@H](O)[C@@H](C)[C@H](C)OC(=O)C[C@H](O)C[C@H](O)CC[C@@H](O)[C@H](O)C[C@H](O)C[C@](O)(C[C@@H]1O)O2` [Amphotericin B ethyl ester hydrochloride, amphotericin B ethyl ester hydrochloride], the solubility [6] was greater than 75 mg/mL.
In the case of `COC(=O)C1C(O)CC2(O)CC(O)CC3OC3/C=C/C(=O)OC(C)C/C=C/C=C/C=C/C=C/C(OC3OC(C)C(O)C(N)C3O)CC1O2` (centres unmarked) [Pimaricin methyl ester hydrochloride], the solubility [6] is reported as greater than 80 mg/mL.
For Candicidin [reference compound], the “Min. Inhibitory Conc.” value ([1]; in vitro) was 0.020 micrograms/ml and the Solubility in water [2, 10] was 0.032 mg/mL.
For mediocidin methyl ester hydrochloride, the Solubility in water [6] was greater than 50.0 mg/mL.
Work on `COC(=O)C1C(O)CC2(O)CC(O)CC3OC3/C=C/C(=O)OC(C)C/C=C/C=C/C=C/C=C/C(OC3OC(C)C(O)C(N)C3O)CC1O2` (centres unmarked) [Pimaricin methyl ester] yielded an MIC ([1]; in vitro) of 4 µg/mL (≈ 5.88 µM).
In the case of Candimycin methyl ester, the “Min. Inhibitory Conc.” value ([1]; in vitro) is reported as 0.025 micrograms/ml.
